Measured values published in patent publication US8575106B2, “Cosmetic uses of modified stressed yeast extracts and related compositions” (Avon Products, Inc., priority 2009, dated 2013).

What was measured:
[1] = tested on: B16 mouse melanoma cell lines; test: Melanin synthesis in B16 cells, normalized to cell viability (MTT); type: cell-based; conditions: 100 μM 2-APB, 7 days, relative to control
Method: Next, the effects of 2-APB and modified peptide fractions having a zinc-complexed peptide comprising SEQ ID NO:1 on melanin synthesis were examined in B16 cells. B16 mouse melanoma cell lines (ATCC, cat. #: CRL-6475) were grown in 96-well tissue culture treated dishes (Falcon) and treated with a test compound to determine its ability to modulate pigment formation (melanin synthesis). Specifically, cells were exposed to 100 μM 2-APB or modified yeast peptide fractions comprising different concentrations of zinc-complexed peptide comprising SEQ ID NO:1, including 1% and 0.1% zinc-complexed peptide, for seven (7) days. Following the treatment period, the level of melanin synthesized was quantified using a Packard micro-plate reader at 540 nm.
After quantifying the amount of melanin synthesized, cell viability was determined using the MTT conversion method. […] After melanin synthesis quantification, the cultures were exposed to MTT dye solution with a concentration of 1 mg/ml for three hours. […] MTT dye uptake and conversion by viable cells was determined by measuring the extracted formazan at 570 nm using a Packard micro-plate reader.
After normalizing to cell viability, total pigmentation then was calculated, and expressed as a percent activity of control. […]

B16 melanoma cells = test: Calcium influx into B16 melanoma cells (Fluo-4 NW Calcium Assay, Thapsigargin-stimulated); type: cell-based, mouse; conditions: 100 μM 2-APB, area under curve of calcium influx peak vs vehicle control
Method: Modified yeast peptide fractions comprising a zinc-complexed peptide comprising SEQ ID NO:1 were tested in vitro for the ability to inhibit calcium influx into pigment-producing cells. An experiment was designed to measure intracellular calcium in B16 melanoma cells using Fluo-4 NW Calcium Assay Kits (Invitrogen) as per manufacturer's instructions. B16 mouse melanoma cell lines (ATCC, cat. #: CRL-6475) were grown in 96-well tissue culture treated dishes in growth medium. Prior to calcium treatment, growth medium from the B16 cell cultures was removed and 100 μL of the dye loading solution was added quickly to each well of a 96-well plate. Plates were incubated at 37° C. for 30 minutes, then at room temperature for an additional 30 minutes. Dye buffer was removed and plates were washed once with 1×PBS and replaced with an assay buffer that contains calcium (and was formed according to the manufacturer's directions) along with a test compound. […]
Fluorescence was measured using a micro-plate reader at excitation/emission wavelengths of 485 nm/530 nm, respectively. The reader was set to read florescence every 30 seconds for a period of 5 minutes. […] The fluorescence micro-plate reader was set to take fluorescence measurements every 30 seconds for a period of 30 minutes, again at excitation/emission wavelengths of 485 nm/530 nm, respectively. […]

`NCCOB(c1ccccc1)c1ccccc1` [2-APB, 2-aminoethyl diphenylborate] was tested, and the “inhibition of melanin synthesis” value [1] was 77% and the “inhibition of calcium entry into the cells” value (B16 melanoma cells) was 86%.
